Biological target: T1, AlaRS R326W binding to Nrp1 (Homo sapiens, UniProt P49588, R326W)
T1 construct: expressed in transfected cells
T1 sequence (P49588 1-968 R326W): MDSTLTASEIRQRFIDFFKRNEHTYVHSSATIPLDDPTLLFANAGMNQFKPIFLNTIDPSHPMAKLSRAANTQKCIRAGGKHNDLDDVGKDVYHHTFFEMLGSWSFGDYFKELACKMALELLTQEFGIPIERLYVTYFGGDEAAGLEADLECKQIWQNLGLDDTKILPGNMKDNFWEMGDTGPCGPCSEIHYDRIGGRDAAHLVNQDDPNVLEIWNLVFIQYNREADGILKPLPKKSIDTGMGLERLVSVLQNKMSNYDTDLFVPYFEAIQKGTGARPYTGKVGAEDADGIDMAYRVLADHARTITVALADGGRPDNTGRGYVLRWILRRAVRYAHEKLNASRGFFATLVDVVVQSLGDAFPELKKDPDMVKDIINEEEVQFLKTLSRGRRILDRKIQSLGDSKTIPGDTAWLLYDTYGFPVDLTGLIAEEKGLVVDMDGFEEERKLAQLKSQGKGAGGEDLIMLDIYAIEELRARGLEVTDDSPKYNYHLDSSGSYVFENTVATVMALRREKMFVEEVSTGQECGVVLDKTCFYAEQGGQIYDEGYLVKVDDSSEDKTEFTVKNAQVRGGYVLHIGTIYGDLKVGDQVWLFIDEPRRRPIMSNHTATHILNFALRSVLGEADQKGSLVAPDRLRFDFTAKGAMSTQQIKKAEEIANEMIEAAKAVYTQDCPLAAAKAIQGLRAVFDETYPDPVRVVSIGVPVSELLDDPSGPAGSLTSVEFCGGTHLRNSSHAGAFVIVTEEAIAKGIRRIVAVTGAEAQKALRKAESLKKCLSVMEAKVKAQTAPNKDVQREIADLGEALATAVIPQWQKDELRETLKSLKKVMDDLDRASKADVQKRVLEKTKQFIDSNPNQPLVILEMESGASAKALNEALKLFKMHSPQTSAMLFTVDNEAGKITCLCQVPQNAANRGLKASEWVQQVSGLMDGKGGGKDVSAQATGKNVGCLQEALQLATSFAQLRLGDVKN
Experiment: Co-IP of HA-AlaRS mutant with Nrp1 in transfected cells
Assay type: cell-based
Settings: 20 µM Tanshinone I for 24 h, ImageJ, average of three repeats
Protocol: To further investigate whether Tanshinone I-induced conformational changes in AlaRS CMT mutants affect their interaction with Nrp1, Co-IP experiments were performed in cells treated with Tanshinone I. By comparing Co-IP results obtained before and after treatment, we assessed the influence of the drug on the binding strength and mode between the AlaRS CMT mutants and Nrp1. […] To confirm the direct effect of Tanshinone I on the interaction between AlaRS CMT mutants and Nrp1, pull-down experiments were performed. […] Given that the interaction between AlaRS mutants and Nrp1 is associated with disease progression in CMT, the ability of Tanshinone I to disrupt this binding highlights its potential to intervene in the pathogenic mechanisms of these diseases.
Figure 7 The impact of Tanshinone I on the interaction between AlaRS mutants and Nrp1. (A) Co-IP assays were conducted to assess the binding between HA-AlaRS mutants and Nrp1, both with and without treatment with 20 µM Tanshinone I for 24 h. […] (C) Pull down assay was performed to detect the binding between AlaRS mutants and GST-Nrp1 b1 with or without 20 µM Tanshinone I. (D) Relative quantification statistics of the AlaRS mutants pulled down from the GST pull down experiments after Tanshinone I treatment were performed using ImageJ. (E) The cell viability of 293T and NSC34 cells treated with different concentrations of Tanshinone I was assessed using the CCK-8 assay over a 24 h period. TEXT PRINTED IN THE PICTURE: (B) Tanshinone I: Mean density band (N71Y): 0.60; Mean density band (G102R): 0.53; Mean density band (R326W): 0.50; Mean density band (R329H): 0.50; Mean density band (E337K): 0.62 | (D) Tanshinone I: Mean density band (N71Y): 0.82; Mean density band (G102R): 0.76; Mean density band (R326W): 0.84; Mean density band (R329H): 0.84; Mean density band (E337K): 0.90
Total protein was extracted from cells using RIPA buffer (50 mM Tris-HCl pH 7.4, 150 mM NaCl, 1% NP40, 1 mM EDTA) supplemented with a protease and phosphatase inhibitor cocktail (Roche, Basel, Switzerland). After SDS-PAGE, the protein on the gel was transferred to a PVDF membrane (Bio-Rad, Hercules, CA, USA) and then blocked with 5% non-fat dry milk in TBST for 1 h. Then, the membranes were incubated with the indicated primary antibodies and corresponding HRP-conjugated secondary antibodies. Signals were detected using the Bio-Rad ChemiDoc system (Bio-Rad, Shanghai, China). The following antibodies were used: Flag (Ray antibody biotech, Beijing, China, 1:3000), HA (Ray antibody biotech, Beijing, China, 1:3000), and GAPDH (Ray antibody biotech, Beijing, China, 1:5000).
To detect the binding of Nrp1 and AlaRS mutants in cells, whole-cell lysates (500 μg) were treated overnight with 2 μg of anti-Flag antibody in RIPA buffer. Next, Protein A/G agarose beads (#sc-2003, Santa Cruz Biotechnology, Santa Cruz, CA, USA) were applied to the lysates and the samples were further treated for 8–12 h with rotation. Samples were washed three times with RIPA buffer. Subsequently, the immunoprecipitations were resuspended into 2 × SDS-loading buffer. The samples were then boiled for 10 min and detected using Western blot. The experiment was repeated three times.

Structure (SMILES): Cc1coc2c1C(=O)C(=O)c1c-2ccc2c(C)cccc12 [Tanshinone I]
- Mean density band (R326W), relative quantification of AlaRS mutant immunoprecipitated: 0.50
